According to US20240173296A1, “PHARMACEUTICAL COMPOSITION OF (S)-KETOROLAC AND PREPARATION METHOD THEREFOR” (NANJING HERON PHARMACEUTICAL SCIENCE AND TECHNOLOGY CO., …, priority 2021, published 2024):
Converted amounts (≈) assume the structure as drawn. Where two headings read alike, the source gives them in different places. One block for each compound: values may come before it.

Assays:
[1] = standard animal model of analgesic activity; cited from earlier work
[2] = Pharmacokinetic testing after single intravenous administration in beagle dogs; assay type: in vivo; details: for AUC(0-inf) / AUC(0-t) / half-life / MRT last / clearance / Vd: dog, mean ± standard deviation; for AUC(0-inf) / AUC(0-t) / half-life / MRT last: plasma analyte = label; for MRT last: read-out: MRT0-t; for clearance / Vd: plasma; for Vd: read-out: Vss
Method: (§1) Representative batches of lyophilized powder injection of (S)-ketorolac described in the present application were selected to examine the drug metabolism in vivo of beagle dogs and cynomolgus monkeys. The mode of administration was single intravenous administration. The concentration of (S)-ketorolac and (R)-ketorolac in plasma samples was measured by LC-MS/MS, and the blood drug concentration-time curve was plotted to obtain the main pharmacokinetic parameters and examine the chiral transformation of (S)-ketorolac and (R)-ketorolac in animals.

[3] = Optical stability of (S)-ketorolac in phosphate buffer solutions with different pH values (Test Example 2); assay type: physicochemical
Method: (§2) Phosphate buffer solutions with a pH range of 6.5 to 7.8 were prepared with reference to Chinese Pharmacopoeia (2020 edition). The appropriate amount of (S)-ketorolac (free acid) was added to each phosphate buffer to prepare mixtures of about 20 mg/ml. Each solution was placed in an air bath shaker and shaken at 25° C. for 24 hours, during which the dissolution of (S)-ketorolac in each mixture was observed. The remaining samples were reserved at 25° C. and 40° C., and the formation of isomers was detected after 2 days and 30 days, as shown in Table 2.

[4] = Solubility of (S)-ketorolac in solvents; assay type: physicochemical
in vivo = details: cynomolgus monkey, iv
Method: as §1

[5] = Solubility of (S)-ketorolac in phosphate buffer solutions with different pH (Test Example 2); assay type: physicochemical; details: 25 °C, aqueous buffer, thermodynamic from solid, read-out: Saturation solubility at 25° C.
Method: as §2

[6] = single intravenous (S)-ketorolac 0.16 mg/kg
[7] = single intravenous (S)-ketorolac 3.2 mg/kg

SMILES: O=C(c1ccccc1)c1ccc2n1CCC2C(=O)O (racemic) [ketorolac tromethamine]
analgesic activity relative to that of Aspirin [1]: 800 times

AUC(0-inf) [2, 6]: 0.0792 ± 0.057 µg·h/mL | AUC(0-t) [2, 6]: 0.0117 ± 0.00121 µg·h/mL | half-life [2, 6]: 22.7 ± 16.8 h | MRT last [2, 6]: 3.07 ± 0.144 h | AUC(0-t) [2, 7]: 0.724 ± 0.259 µg·h/mL | MRT last [2, 7]: 3.52 ± 0.33 h | Chiral transformation rate = (AUC0-t)R/[(AUC0-t)S + (AUC0-t)R] × 100 [2, 6]: 2.10% | Chiral transformation rate = (AUC0-t)R/[(AUC0-t)S + (AUC0-t)R] × 100 [2, 7]: 1.71%
SMILES: O=C(c1ccccc1)c1ccc2n1CC[C@H]2C(=O)O [(R)-ketorolac]

Isomer purity determined ([3]; phosphate buffer pH 6.5, 25° C., Day 2): 0.20% | Isomer purity determined ([3]; phosphate buffer pH 6.5, 25° C., Day 30): 3.43% | Isomer purity determined ([3]; phosphate buffer pH 6.5, 40° C., Day 30): 27.90% | Isomer purity determined ([3]; phosphate buffer pH 6.8, 25° C., Day 2): 0.21% | Isomer purity determined ([3]; phosphate buffer pH 6.8, 25° C., Day 30): 3.22% | Isomer purity determined ([3]; phosphate buffer pH 6.8, 40° C., Day 30): 28.14% | Isomer purity determined ([3]; phosphate buffer pH 7.0, 25° C., Day 2): 0.22% | Isomer purity determined ([3]; phosphate buffer pH 7.0, 25° C., Day 30): 3.20% | Isomer purity determined ([3]; phosphate buffer pH 7.0, 40° C., Day 30): 27.11% | Isomer purity determined ([3]; phosphate buffer pH 7.2, 25° C., Day 2): 0.22% | Isomer purity determined ([3]; phosphate buffer pH 7.2, 25° C., Day 30): 3.34% | Isomer purity determined ([3]; phosphate buffer pH 7.2, 40° C., Day 30): 27.71% | Isomer purity determined ([3]; phosphate buffer pH 7.4, 25° C., Day 2): 0.21% | Isomer purity determined ([3]; phosphate buffer pH 7.4, 25° C., Day 30): 3.31% | Isomer purity determined ([3]; phosphate buffer pH 7.4, 40° C., Day 30): 23.91% | Isomer purity determined ([3]; phosphate buffer pH 7.6, 25° C., Day 2): 0.22% | Isomer purity determined ([3]; phosphate buffer pH 7.6, 25° C., Day 30): 3.43% | Isomer purity determined ([3]; phosphate buffer pH 7.6, 40° C., Day 30): 24.35% | Isomer purity determined ([3]; phosphate buffer pH 7.8, 25° C., Day 2): 0.51% | Isomer purity determined ([3]; phosphate buffer pH 7.8, 25° C., Day 30): 4.92% | Isomer purity determined ([3]; phosphate buffer pH 7.8, 40° C., Day 30): 21.28% | optical purity of (S)-ketorolac ([3]; samples in the solution state (phosphate buffer), stored at 25° C. for one month): greater than or equal to 95% | solubility in anhydrous ethanol ([4]; anhydrous ethanol): sparingly soluble | solubility in dichloromethane ([4]; dichloromethane): slightly soluble | solubility in dimethylformamide ([4]; dimethylformamide): freely soluble | solubility in methanol ([4]; methanol): soluble | solubility in water ([4]; water): nearly or completely insoluble | clearance [2, 6]: 0.193 L/h/kg | Vd [2, 6]: 1.29 ± 0.432 L/kg | clearance [2, 7]: 0.0283 L/h/kg | Vd [2, 7]: 0.391 L/kg | AUC(0-inf) [2, 6]: 0.95 ± 0.385 µg·h/mL | AUC(0-t) [2, 6]: 0.545 ± 0.147 µg·h/mL | half-life [2, 6]: 7.13 ± 2.93 h | MRT last [2, 6]: 1.61 ± 0.4 h | AUC(0-inf) [2, 7]: 117 ± 25.9 µg·h/mL | AUC(0-t) [2, 7]: 41.6 ± 3.54 µg·h/mL | half-life [2, 7]: 10.3 ± 2.18 h | MRT last [2, 7]: 2.5 ± 0.149 h | Vd (in vivo; 0.24 mg/kg): 0.224 ± 0.0778 L/kg | clearance (in vivo; 0.24 mg/kg): 0.106 L/h/kg | Vd (in vivo; 2.4 mg/kg): 0.18 ± 0.0381 L/kg | clearance (in vivo; 2.4 mg/kg): 0.102 L/h/kg | solubility at 24 h ([5]; phosphate buffer solution pH 6.5): 1.86 mg/mL (≈ 7.29 mM) | solubility at 24 h ([5]; phosphate buffer solution pH 6.8): 3.03 mg/mL (≈ 11.9 mM) | solubility at 24 h ([5]; phosphate buffer solution pH 7.0): 4.09 mg/mL (≈ 16 mM) | solubility at 24 h ([5]; phosphate buffer solution pH 7.2): 4.52 mg/mL (≈ 17.7 mM) | solubility at 24 h ([5]; phosphate buffer solution pH 7.4): 4.72 mg/mL (≈ 18.5 mM) | solubility at 24 h ([5]; phosphate buffer solution pH 7.6): 5.22 mg/mL (≈ 20.4 mM) | solubility at 24 h ([5]; phosphate buffer solution pH 7.8): ≥ 24.2 mg/mL
SMILES: O=C(c1ccccc1)c1ccc2n1CC[C@@H]2C(=O)O [(S)-ketorolac]
